Results reported in patent US12130282B2, “Universal fluorescence assay of high affinity ligand transport” (priority 2018, dated 2024).
Several values for one entry are separate records, joined by “and”; a condition that tells them apart may be missing. Equal entries are not always repeated. Where two headings read alike, the source gives them in different places.

Legend:
[1] = target: T1, EcoFepA-FM (Escherichia coli, UniProt P05825, A720C); assay: Fluorescence quenching binding of ferric catecholates to E. coli OKN13/pEcoFepA-FM; settings: summary of Table 2 for both KpnFepA-FM and EcoFepA-FM fluorescent sensors
T1 construct: expressed in transfected cells; host or cells: E. coli OKN13 (ΔtonB, ΔfepA), low-copy plasmid pHSG575 derivative
Excerpt: (§1) Affinity determinations by spectroscopic analyses The analytical capabilities of the fluorescence spectroscopic determinations stood out when we compared the recognition of FeEnt and its glucosylated form, FeGEnt (also known as ferric salmochelin), by EcoFepA and KpnFepA. The ability of Gram (−) pathogens, including K. pneumoniae, to glucosylate enterobactin and transport FeGEnt enhances their invasiveness, in part because glucosylation impairs recognition of the iron complex by lipocalins. Additionally, whereas E. coli K12 contains a single chromosomal fepA locus that encodes its FeEnt transporter, pathogenic K. pneumoniae contain at least three fepA orthologs (chromosomal loci 1658, 4984; plasmid PII locus 0027). IroN of Salmonella typhimurium has a role in FeGEnt uptake; its closest ortholog in K. pneumoniae is plasmid-mediated fepA0027. […]
(§2) Fluorescence modifications of Cys-mutant proteins. […]
(§3) Fluorescence spectroscopy. We observed fluorophore-labeled cells in an SLM AMINCO 8100 fluorescence spectrometer, upgraded with an OLIS operating system and software (OLIS SpectralWorks, OLIS Inc., Bogart, GA), to control its shutters, polarizers and data collection. We also utilized an OLIS Clarity fluorescence spectrometer for fluorescence assays of ferric catecholate binding.

[2] = system: KpnFepA-FM (KpnFepA0027_T210C); assay: Fluorescence quenching binding of ferric catecholates to E. coli OKN13/pKpnFepA-FM; parameters: species or system K. pneumoniae; settings: adsorption to KpnFepA
Excerpt: as §1, §2, §3

[3] = system: K. pneumoniae Kp52.145; assay: FD sensor assay of FeEnt uptake rate by test strain (sensor OKN13/pEcoFepA-FM); assay type: cell-based
Protocol: FIG. 7. Uptake rates from FD assays. At t=60 s we added varying concentrations of FeEnt [(0.5 nM (green); 1 nM (yellow); 5 nM (orange); 10 nM (red)] to sensor strain OKN13/pEcoFepA-FM in the presence of test strain K. pneumoniae isolate Kp52.145. 10 nM FeEnt gave maximal quenching. For 1 and 5 nM FeEnt, at half-saturation (blue dashed line) we determined the slope of the time course (black dashed line) and the elapsed time (dashed red line). Either parameter estimated the transport rate of the test strain (see text).
Transport rates from spectroscopic analyses. The rate of fluorescence recovery in the spectroscopic system correlates to the rate of ligand depletion by bacterial transport, and comparisons of test strains in universal FD uptake assays reiterated this point. The various ESKAPE bacteria conferred fluorescence recovery at different rates (FIG. 3B). FeEnt binding at 100 s quenched the fluorescence of the FD sensor strain, E. coli OKN13/pEcoFepA-FM. […] But, the fluorescence of the E. coli strain reflected FeEnt uptake by other bacteria in the same solution: as they decreased [FeEnt] by cellular transport the intensity of OKN13/pEcoFepA-FM returned to initial levels (as described in FIG. 1B). The assay monitored FeEnt uptake by E. coli expressing chromosomal (Eco; cyan) or plasmid-mediated (Eco/pfepA+; blue) FepA, and ESKAPE species K. pneumoniae (Kpn; red), A. baumannii (Aba; gold), P. aeruginosa (Pae; green), E. cloacae (Ecl; magenta). […]
Species-specific fluorescence assay of FeEnt uptake: KpnFepA-FM. […] For species-specific ferric siderophore transport assays of Gram (−) bacteria we added an iron complex to 2×10^7 labeled cells in a quartz cuvette (final volume, 2 mL) with stirring at 37° C., and monitored the time course of fluorescence emissions at 520 nm. […] After addition of the ferric siderophore, we monitored the time-course of fluorescence emissions at 520 nm for 15-30 minutes, with stirring. […]

[4] = target: T2, EcoFepA (Escherichia coli, UniProt P05825); settings: read-out: Kd, previous determinations; cited from earlier work
T2 construct: expressed in transfected cells; host or cells: E. coli OKN3 (ΔfepA), plasmid pITS23 (pHSG575, ecofepA+)

[5] = system: chromosomally expressed FepA in E. coli; settings: cited from earlier work
[6] = target: LmoHbp2_S154C-CPM; assay: Hemin titration of purified LmoHbp2-CPM, fluorescence quenching; assay type: binding, Listeria monocytogenes; settings: purified LmoHbp2-CPM 30 nM, 1-255 nM hemin, triplicate
Protocol: We substituted Cys for residue S154 in NEAT1 of LmoHbp2, expressed and purified the binding protein, and covalently modified it with coumarin maleimide (CPM). Introduction of Cys in NEAT-1 of LmoHbp2 allowed its modification by extrinsic fluorophores, transforming the purified binding protein into a sensitive sensor whose emissions inversely related to [Hn]. […] The experiment was performed in triplicate; the mean values, with standard deviations, are shown. […] When we mixed Hbp2-CPM with heterologous bacteria in solution, it reflected their hemin uptake. Addition of hemin at 300 s quenched LmoHbp2-CPM emissions, but fluorescence rebounded as bacteria {L. monocytogenes (Lmo; blue), B. subtilis (Bsu; gold), S. aureus (Sau; red), V. cholerae (Vch; green)} transported the porphyrin and depleted it from solution. […]
For fluorescence spectroscopic determinations of Gram (+) bacterial heme acquisition we used the FD sensor LmoHbp2_S154C-CPM. […] For measurements of Hn uptake by heterologous bacteria we suspended the LmoHbp2_S154C-CPM sensor protein at 30 nM in PBS+0.2% glucose in a 2 mL cuvette, added Hn to 15 nM after 300 s, and then added iron-starved bacterial cells at 600 s, to a final concentration of 5×10^7/mL, and monitored fluorescence for 2 h.

[7] = target: LmoHbp2; settings: read-out: Kd, isocalorimetric; cited from earlier work
[8] = target: LmoHbp2; settings: read-out: Kd, radioisotopic; cited from earlier work

T1 sequence (P05825 23-746 A720C): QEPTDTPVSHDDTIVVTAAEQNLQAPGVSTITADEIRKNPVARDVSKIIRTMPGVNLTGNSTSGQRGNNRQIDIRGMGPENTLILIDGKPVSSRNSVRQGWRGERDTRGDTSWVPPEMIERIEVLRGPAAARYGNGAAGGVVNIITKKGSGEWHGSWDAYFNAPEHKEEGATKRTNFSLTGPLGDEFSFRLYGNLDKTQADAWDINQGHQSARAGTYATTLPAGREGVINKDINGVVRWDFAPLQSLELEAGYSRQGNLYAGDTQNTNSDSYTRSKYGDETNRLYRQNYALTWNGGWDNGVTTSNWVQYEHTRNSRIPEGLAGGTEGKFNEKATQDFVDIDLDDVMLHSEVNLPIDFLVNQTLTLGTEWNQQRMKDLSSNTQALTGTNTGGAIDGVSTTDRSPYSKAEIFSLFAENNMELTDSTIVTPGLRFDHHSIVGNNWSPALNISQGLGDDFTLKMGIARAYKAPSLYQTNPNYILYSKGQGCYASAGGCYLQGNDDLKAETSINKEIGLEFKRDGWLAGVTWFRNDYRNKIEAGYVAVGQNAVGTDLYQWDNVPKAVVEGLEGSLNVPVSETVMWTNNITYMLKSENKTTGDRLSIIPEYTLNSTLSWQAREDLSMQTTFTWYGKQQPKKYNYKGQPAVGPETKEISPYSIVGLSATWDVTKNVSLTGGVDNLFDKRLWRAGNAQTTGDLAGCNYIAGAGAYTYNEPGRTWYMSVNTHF
T2 sequence (P05825 23-746): as the sequence (P05825 23-746 A720C) above, with C698A counted along it

Compound	Kd [1]	fold lower affinity than FeEnt [2] [fold]	time required to deplete 5 nM FeEnt to 0.38 nM (half-saturation) ([3]; 10^7 cells/mL K. pneumoniae Kp52.145) [s]	mean uptake rate over the first 520 s ([3]; 10^7 cells/mL K. pneumoniae Kp52.145, 5 nM FeEnt) [pMol/10^9 cells/min]	Vmax ([3]; K. pneumoniae Kp52.145, mean rate ÷ 0.8)	Kd [4] [nM]	Vmax [5]	Kd [6] [nM]	Kd [7] [nM]	Kd [8] [nM]
O=C(N[C@H]1COC(=O)[C@@H](NC(=O)c2cc([C@@H]3O[C@H](CO)[C@@H](O)[C@H](O)[C@H]3O)cc(O)c2O)COC(=O)[C@@H](NC(=O)c2cc([C@@H]3O[C@H](CO)[C@@H](O)[C@H](O)[C@H]3O)cc(O)c2O)COC1=O)c1cccc(O)c1O.[Fe+3] [FeGEnt, ferric salmochelin]	6 to 280 nM	20	–	–	–	–	–	–	–	–
O=C(N[C@H]1COC(=O)[C@@H](NC(=O)c2cccc([O-])c2[O-])COC(=O)[C@@H](NC(=O)c2cccc([O-])c2[O-])COC1=O)c1cccc([O-])c1[O-].[Fe+3] [FeEnt, ferric enterobactin]	~0.38 nM and 0.4 nM	–	520	53	≈ 66 pMol/10^9 cells/min	0.2 to 0.5	50-100 pMol/min/10^9 cells	–	–	–
hemin	–	–	–	–	–	–	–	12 ± 3.1	25 to 48	12
